In ChEMBL document CHEMBL1158113, “Terpenoids and a diarylheptanoid from Zingiber ottensii” (J Nat Prod, 2006):

Each compound was assayed on Radical scavenging activity (assay: Antioxidant activity assessed as DPPH free radical scavenging activity after 30 mins by multilabel counter).
Type: functional
Compound `Cc1c(C)c2c(c(C)c1O)CC[C@@](C)(CCC[C@H](C)CCC[C@H](C)CCCC(C)C)O2` [ALPHA-TOCOPHEROL] has an IC50 of 37.5 µM.
For `O=C1O[C@H]([C@@H](O)CO)C(O)=C1O` [ASCORBIC ACID], the IC50 was 35.6 µM.
`COc1cc(CC[C@@H](O)C[C@@H](O)CCc2ccc(O)c(OC)c2)ccc1O` gave an IC50 of 20.6 µM.
Work on `COc1cc(CC[C@H](O)C[C@@H](O)CCc2cc(OC)c(O)c(OC)c2)ccc1O` yielded an IC50 of 16.4 µM.
For `COc1cc(CC[C@@H](O)C[C@@H](O)CCc2ccc(O)c(O)c2)ccc1O` (relative stereo), the IC50 was 24 µM.
Compound `COc1cc(CC[C@H](O)C[C@@H](O)CCc2ccc(O)c(OC)c2)ccc1O` has an IC50 of 20.1 µM.
